Series [1] is described as follows: Differential scanning calorimetry. It counts as physicochemical. To be noted: heated 10° C./min from 22° C. to 250° C. On the procedure:
Differential scanning calorimetry (DSC) was performed using a TA Instruments Model Q-100 module with a Thermal Analyst controller. Data were collected and analyzed using TA Instruments Thermal Solutions software. A 2.8 mg sample of the crystalline hydrochloride salt of Example 8 was accurately weighed into a covered aluminum pan. After a 5 minute isothermal equilibration period at 22° C., the sample was heated using a linear heating ramp of 10° C./min from 22° C. to 250° C. A representative DSC thermograph is shown in FIG. 2 of U.S. Pat. No. 8,304,433 B2.

For another series, the system named is subjects with nOH. As to the kind of experiment: Phase 2 clinical study in subjects with nOH, Part A (dose escalation). It counts as in vivo, human. Also noted: key to Improvement in Seated SBP / Improvement in Time Standing / Improvement in Dizziness or Lightheadedness: ✓: Dose-related improvement observed relative to placebo. The text has this:
A Phase 2 clinical trial study is being conducted with 4-[2-(2,4,6-trifluorophenoxymethyl)phenyl]piperidine hydrochloride (“Study Compound”). The study is a multicenter, randomized, two-part, single-(Part A) and double-blind (Part B) study of the Study Compound versus placebo in subjects with nOH. An open-label, extension study to evaluate efficacy, safety and tolerability of the Study Compound will also be conducted (Part C). Part A follows a daily, single, escalating dose design starting with placebo on Day 1, followed by a dose of 1 mg of Study Compound on Day 2, and proceeding to escalating higher doses of Study Compound on a daily basis up to a maximum dose of 10 mg based on safety, tolerability, and determination of a pressor effect.
Subjects included in the study are male or female between the age of 40 and 80 years (inclusive) that have been diagnosed with symptomatic orthostatic hypotension due to pure autonomic failure, multiple system atrophy or Parkinson's disease (i.e., PD plus symptoms). At screening, autonomic function testing is conducted to confirm the diagnosis of autonomic dysfunction including sinus arrhythmia and the Valsalva maneuver.
In Part A, all doses (Study Compound and placebo) are administered in a single-blind manner (i.e., subject remains blinded) using an oral dosing solution. Up to 30 subjects are enrolled in Part A. Two days before the start of Part A, subjects are admitted to the clinical research center (CRC) where they remain during the entire dose escalation period. On Day 1, subjects receive a single dose of placebo. On Day 2, subjects receive a single 1 mg dose of Study Compound. On each subsequent day, subjects receive a single escalating dose of Study Compound as follows: 2.5 mg on Day 3; 5 mg on Day 4; 10 mg on Day 5 unless the following preset stopping criteria occur: • (a) a determination from the Investigator (in collaboration with the Sponsor) that administration of the subsequent next dose may pose a safety concern; • (b) SBP ≥180 mm or DBP ≥110 mm in the sitting position replicated 2 more times over an hour; • (c) intolerable side effects as determined by the Investigator; or • (d) subject receives maximum dose of study medication specified by the protocol.
Once the subject meets any of the above criteria, no further dose escalation is performed. Following a post-dosing observation day in the clinic, the subject is released from the CRC.
Seated and standing systolic blood pressure and completion of an Orthostatic Hypotension Symptom Assessment (OHSA) questionnaire are used to assess efficacy. For Part C, ambulatory blood pressure monitoring is used if available to measure blood pressure every 2 hours for 24-hour period before dosing on Day 1; and 72 to 48 hours before Day 15, Day 29, Day 85 and Day 169 clinic visits. Additionally, blood pressure is taken 20-30 mins before eating each morning about being supine (30 degree elevation) for at least 10 mins.
For both Parts A and B, the primary study endpoint is the difference from placebo of seated systolic blood pressure at 6 to 8 hours after drug administration. For Part A, placebo refers to the Day 1 visit, and the difference from placebo refers to the time-matched difference from each Study Compound dosing day (Days 2 through 5) relative to placebo dosing (Day 1). For Part C, primary study endpoint is improvement in the Likert scale for “dizziness, lightheadedness, feeling faint, or feeling like you might black out” (OHSA question 1) at week 4. […]

For another series, the system named is other CYP450 enzymes. Particulars: cited from earlier work.
Setting [2] is: individual patient, Part A, oral solution up to 10 mg/day, vs placebo, preliminary.

The structures appear in SMILES notation. Where “and” joins values, the source holds several entries; their conditions need not be identical. Equal entries are not always repeated.

`Cl.Fc1cc(F)c(OCc2ccccc2C2CCNCC2)c(F)c1` [4-[2-(2,4,6-Trifluorophenoxymethyl)phenyl]piperidine Hydrochloride]: in series [1], the “thermal stability by DSC” value is recorded as “excellent thermal stability”. The “MSA patients showing improvement relative to placebo in at least one category” value in the series with subjects with nOH (MSA patients completing Part A, 6 of 6) stood at 100%. Besides, in the series with subjects with nOH (setting [2]), the “Improvement in Dizziness or Lightheadedness” value is listed as “✓” and the “Improvement in Time Standing” value is given as “✓”. Further, the “Improvement in Seated SBP” value in the series with subjects with nOH (individual patient, Part A, oral solution up to 10 mg/day, vs placebo, preliminary, Hydrochloride) was “✓ (6×) and ✓^2”. Also, the “patients showing an improvement relative to placebo in at least one of seated SBP, standing time, dizziness or lightheadedness” value with subjects with nOH (patients completing Part A, 10 of 12) came to 83%.
In the case of `CNCC[C@@H](Oc1ccccc1C)c1ccccc1` [atomoxetine], the “impact of inhibition of other CYP450 enzymes on metabolism” value in the series with other CYP450 enzymes is “not significantly impacted”.

The values above are taken from US10238642B2, “Methods for treating neurogenic orthostatic hypotension” (Theravance Biopharma R&D IP, LLC, priority 2016, dated 2019).
